Experimental data reported in patent US20190256559A1, “PEPTIDOMIMETIC MACROCYCLES AND USES THEREOF” (AILERON THERAPEUTICS, INC., priority 2015, published 2019).
“Also recorded” adds a separate entry of the source. Where a SMILES comes first, the peptide text is derived from it. Bridges are numbered along the chain shown (N, C = ends). [ ]: non-standard residue; d: D form. R8 = C=CCCCCCC[C@@](C)(N)C(=O)O; S5 = C=CCCC[C@](C)(N)C(=O)O

Assays:
[1] = system: human peripheral blood lymphocyte
[2] = Preclinical GLP safety studies in rodents and monkeys (overall profile); assay type: in vivo
Text: Genotoxicity, gastrointestinal toxicity, cardiotoxicity, and immunogenicity were not observed.

[3] = system: MV 4; 11 human leukemia xenograft; test: MV 4;11 human leukemia (AML) xenograft model, survival; assay type: in vivo; settings: mice, 25 mg/kg, six bi-weekly doses
Method: In another study, MV 4; 11 human leukemia xenograft model was used in mice to assess the ability of peptide 1 to inhibit tumor growth and improve overall survival in AML, a highly aggressive liquid tumor. In this study, 25 mg/kg dose of peptide 1 was administered in six bi-weekly doses and compared to the results of mice treated with only cyclophosphamide, the control group. Mice were monitored individually for an endpoint of morbidity due to progression of the leukemia. All ten mice that received the control exited the study between days 21 and 28, offering a sensitive assay for activity.

[4] = system: liquid cancer cell lines with mutant p53; test: Multiplexed cytotoxicity assay: cell proliferation/cytotoxicity (relative cell count), 72 h, cell lines with mutant p53; assay type: cell-based
Method: The objective of this study was to concurrently evaluate peptide 1-induced cytotoxicity, p21 up-regulation and caspase-3 activation in multiple liquid cancer cell cell lines characterized as having either wild-type or mutated p53 in order to determine whether the cytotoxicity is PD-mediated.
(§1) Cell lines from hematologic liquid cancer cells, characterized for p53 mutant/wild-type status, were seeded into 384-well plates and incubated in a humidified atmosphere of 5% CO2 at 37° C. Peptide 1 was serially diluted and assayed over 10 concentrations, up to 30 μM, in a final assay concentration of 0.1% DMSO. Treatment was added 24 hours post cell seeding, when a time zero untreated cell plate was also generated to determine the number of doublings in the 72 hour assay period. About one hundred cells per well were evaluated, with each test condition run in duplicate wells. After a 72 hour incubation period, cells were fixed and stained with fluorescently labeled antibody and nuclear dye. In the same wells, nuclei were assessed for toxicity (dye uptake) by automated fluorescence microscopy; apoptosis was assayed by elevations in anti-active caspase-3 antibody; and cell cycle arrest was assayed by elevations in anti-p21 monoclonal antibody EA10.
(§2) Cell proliferation was measured by relative cell count, which was expressed as percent of control. […]

[5] = system: cryopreserved hepatocytes; test: In vitro metabolite profile / stability in cryopreserved hepatocytes; assay type: in vitro ADME, mouse, rat, monkey, and human
Text: (§3) Proteolysis is the major biotransformation pathway of peptide 1. […] The predominant metabolite was also observed in the plasma in both the rat and monkey 4-week GLP toxicology studies, with adequate exposures in these studies to provide characterization of its impact on the overall safety profile of peptide 1. […] Accumulation of the predominant metabolite was not observed with repeated twice-weekly dosing in rats or monkeys.

[6] = system: cytochrome P450 (CYP) enzymes; test: In vitro cytochrome P450 induction; assay type: in vitro ADME
Text: (§4) Inhibition or induction of cytochrome P450 (CYP) enzymes by peptide 1 appears to be negligible at clinically-relevant concentrations, although interactions are possible at high exposures of peptide 1 with drugs that are predominantly cleared by hepatobiliary transporters.
(§5) Based on these findings, the potential of clinically relevant drug-drug interactions for concomitant medications that are cleared through CYP-mediated mechanisms can be low.

[7] = Pharmacokinetic/toxicokinetic studies after IV administration in mice, rats and monkeys; assay type: in vivo
Text: Pharmacokinetic studies characterize exposure kinetics following single IV administrations of peptide 1 in mice, rats and monkeys, including evaluations of two different dosing formulations in rats and monkeys. Using qualified liquid chromatography with tandem mass spectrometry (LC-MS-MS) methods for efficacy models and dose range-finding (DRF) studies, and validated methods for GLP safety studies, absorption was characterized in mice at the MED in efficacy models and in rats and monkeys at tolerated and non-tolerated doses in toxicology studies.

BV-173 leukemia cells = test: Multiplexed cytotoxicity assay: relative cell count in BV-173 cells (wild type p53); assay type: cell-based; settings: wild type p53, 72 h
Method: as §1
(§6) Cell proliferation was measured by relative cell count, which was expressed as percent of control.
Those that did were most often characterized by significant inductions of both caspase-3 and p21. Results with BV-173 leukemia cells (Table 16) are representative of the typical responses with these cell lines.

[8] = 4-week monkey GLP toxicity study, twice-weekly IV dosing (toxicity and toxicokinetics); assay type: in vivo, monkeys
Text: (§7) The 4-week multiple-dose GLP studies in rats and monkeys utilized twice-weekly IV dosing of peptide 1. The studies provided dose- and exposure-related assessments during both dosing and recovery periods, and results were utilized to define the maximum tolerated doses (MTD) and estimate the severely toxic dose for 10% (STD10) of rats and the highest non-severely toxic dose (HNSTD) in monkeys. All gross and microscopic signs of intolerance (e.g., reduced organ weights, sporadic findings of multi-tissue hemorrhage and hepatic necrosis) and changes in serum chemistry parameters were considered as secondary to red blood cell (RBC), platelet and/or white blood cell (WBC) depletions or anorexia and dehydration in both species.

plasma protein = test: In vitro plasma protein binding; assay type: in vitro ADME, mouse, rat, dog, monkey, human; settings: for free peptide 1 fraction: human and monkey plasma
Method: The in vitro protein binding of peptide 1 was evaluated over a range of concentrations in mouse, rat and monkey plasma, as well as human plasma samples from normal subjects and hypoalbuminemic patients.

activated caspase-3 = test: Multiplexed cytotoxicity assay: activated caspase-3 (apoptosis) induction in p53 wild-type hematopoietic cell lines; assay type: cell-based
Method: as §1, §6

[9] = system: cytochrome P450 (CYP) isoforms; test: In vitro cytochrome P450 inhibition; assay type: in vitro ADME
Text: as §4, §5

[10] = system: bacterial mutagenicity (Ames); test: Bacterial mutagenicity (Ames)
Text: (§8) Peptide 1 was negative in genetic toxicology studies, including bacterial mutagenicity (Ames), chromosomal aberrations (human peripheral blood lymphocyte) and in vivo micronucleus (rat bone marrow) assays.

[11] = system: hematologic cancer cell lines with wild-type p53; test: Multiplexed cytotoxicity assay: cell proliferation/cytotoxicity (relative cell count), 72 h, cell lines with wild-type p53; assay type: cell-based; settings: liquid cancer cells expressing WT p53 protein
[12] = 4-week rat GLP toxicity study, twice-weekly IV dosing (toxicity and toxicokinetics); assay type: in vivo, rats
Text: as §7

p21 = test: Multiplexed cytotoxicity assay: p21 induction in p53 wild-type hematopoietic cell lines; assay type: cell-based
Method: as §1

rat bone marrow = test: In vivo micronucleus assay
Text: as §8

[13] = Single-dose rat study of metabolism and elimination; assay type: in vivo
Text: as §3

[14] = system: HEL-92-1-7 leukemia cells; test: Multiplexed cytotoxicity assay: relative cell count in HEL-92-1-7 cells (mutant p53); assay type: cell-based; settings: mutant p53, 72 h
Method: as §1, §2
Results with HEL-92-1-7 leukemia cells (Table 17) are representative of the typical responses with these cell lines.

[15] = in vivo, intravenous, 4-week monkey GLP toxicity study, range over doses
[16] = in vivo, intravenous, 4-week rat GLP toxicity study, range over doses

CC(=O)N[C@@H](CC(C)C)C(=O)N[C@H](C(=O)N[C@@H](Cc1ccccc1)C(=O)N[C@]1(C)CCCCCC/C=C/CCC[C@@](C)(C(=O)N[C@@H](C)C(=O)N[C@@H](C)C(=O)N[C@@H](C)C(=O)N[C@@H](C)C(=O)N[C@@H](C)C(=O)N[C@H](C)C(N)=O)NC(=O)[C@H](CC(C)C)NC(=O)[C@H](CCC(N)=O)NC(=O)[C@H](C)NC(=O)[C@H](Cc2c[nH]c3ccccc23)NC(=O)[C@H](Cc2ccc(O)cc2)NC(=O)[C@H](CCC(=O)O)NC1=O)[C@@H](C)O [peptide 1] (Ac-LTF[R8]EYWAQL[S5]AAAAA[dA]-NH2; staple (E) 4-11)
chromosomal aberrations [1]: negative
Genotoxicity [2]: not observed
Histopathology [2]: bone marrow hypocellularity consistent with mild to moderate myelosuppression
cardiotoxicity [2]: not observed
gastrointestinal toxicity [2]: not observed
immunogenicity [2]: not observed
median overall survival [3]: 40 days
activity in in vitro liquid cancer cell growth assays ([4]; cells with mutations of p53): not in cells with mutations of p53
character of cytotoxicity ([4]; liquid cancer cell lines containing mutated p53): cell cycle arrest without elevated apoptosis
major biotransformation pathway ([5]; in vitro, across species): Proteolysis
metabolite profile across species ([5]; mouse, rat, monkey, and human cryopreserved hepatocytes): same metabolite profile
induction of cytochrome P450 (CYP) enzymes [6]: negligible; also recorded: did not indicate any significant treatment-related effects
dose proportionality of exposure ([7]; rats and monkeys): increased proportionally with dose
sex-based differences in PK ([7]; rats and monkeys): No significant sex-based differences
accumulation following multiple doses ([7]; rats and monkeys, twice-weekly schedule): no accumulation
accumulation of the predominant metabolite ([7]; repeated twice-weekly dosing in rats or monkeys): not observed
Relative Cell Count (%) Mean (BV-173 leukemia cells; 3.00E+00 μM): 15.0%
Relative Cell Count (%) Mean (BV-173 leukemia cells; 3.00E+01 μM): 2.2%
Relative Cell Count (%) Mean (BV-173 leukemia cells; 3.01E−01 μM): 31.8%
Relative Cell Count (%) Mean (BV-173 leukemia cells; 3.01E−02 μM): 84.8%
Relative Cell Count (%) Mean (BV-173 leukemia cells; 3.02E−03 μM): 99.9%
Relative Cell Count (%) Mean (BV-173 leukemia cells; 9.49E+00 μM): 4.3%
Relative Cell Count (%) Mean (BV-173 leukemia cells; 9.51E−01 μM): 14.3%
Relative Cell Count (%) Mean (BV-173 leukemia cells; 9.52E−02 μM): 64.4%
Relative Cell Count (%) Mean (BV-173 leukemia cells; 9.53E−03 μM): 94.9%
Relative Cell Count (%) Mean (BV-173 leukemia cells; 9.55E−04 μM): 100.8%
exposure at the high-dose group ([8]; 20 mg/kg, 4-week monkey GLP toxicity study): apparent plateau in exposure
platelet response ([8]; 4-week monkey GLP toxicity study, different dosings): dose-dependent decreases in platelets with recovery
Cmax [8, 15]: 133 to 562 µg/mL
clearance [8, 15]: 0.108 to 0.23 mL/min/kg
half-life [8, 15]: 3.7 to 6 h
AUC(0-inf) ([8]; in vivo, intravenous, 4-week monkey GLP toxicity study, range over doses, read-out: AUC0-∞): 813 to 1600 µg·h/mL
AUC(0-inf) ([8]; in vivo, intravenous, monkey, 5 mg/kg, read-out: AUC0-∞ at HNSTD in monkeys): 813 µg·h/mL
predominant metabolite plasma exposure relative to AUC ([8]; monkey, 4-week GLP toxicology study): 10%
significant thrombocytopenia ([8]; monkeys, lowest dose level 5 mg/kg): complete lack of significant thrombocytopenia
significant thrombocytopenia ([8]; monkeys, mid- and high-dose levels): only one animal
HNSTD (highest non-severely toxic dose) ([8]; monkeys, twice-weekly IV, 4 weeks): 5 mg/kg
dose proportionality of exposure ([8]; non-human primates): increased proportionally with dose
free peptide 1 fraction (plasma protein; concentrations >200 μM): 12-14%
free peptide 1 fraction (plasma protein; concentrations up to 150 μM): 3-4%
fraction unbound (plasma protein; mouse and rat plasma up 250 µM): < 0.02
fraction unbound (plasma protein; mouse, rat, dog, monkey, human, plasma of mice, rats, dogs, monkeys, and humans): 0.02 to 0.08
apoptotic response (activated caspase-3) (activated caspase-3): robust apoptotic responses
inhibition of cytochrome P450 (CYP) isoforms [9]: negligible; also recorded: not an inhibitor
bacterial mutagenicity (Ames) [10]: negative
activity in in vitro liquid cancer cell growth assays [11]: demonstrates activity
Cmax [12, 16]: 49.9 to 186 µg/mL
clearance [12, 16]: 0.32 to 0.472 mL/min/kg
AUC(0-inf) ([12]; in vivo, intravenous, 4-week rat GLP toxicity study, range over doses, read-out: AUC0-∞): 90.5 to 562 µg·h/mL
AUC(0-inf) ([12]; in vivo, intravenous, rat, 10 mg/kg, read-out: AUC0-∞ at rat STD10): 562 µg·h/mL
predominant metabolite exposure relative to peptide 1 AUC ([12]; rat, 4-week GLP toxicology study): 6%
dose proportionality of Cmax and AUC ([12]; rats): linear, dose-proportional increases
STD10 (severely toxic dose for 10%) ([12]; rats, twice-weekly IV, 4 weeks): 10 mg/kg
induction of p21 (p21): significant induction of p21
in vivo micronucleus (rat bone marrow): negative
predominant clearance pathway [13]: hepatobiliary metabolism and elimination
Relative Cell Count (%) Mean ([14]; 3.00E+00 μM): 79.2%
Relative Cell Count (%) Mean ([14]; 3.00E+01 μM): 67.9%
Relative Cell Count (%) Mean ([14]; 3.01E−01 μM): 77.8%
Relative Cell Count (%) Mean ([14]; 3.01E−02 μM): 89.8%
Relative Cell Count (%) Mean ([14]; 3.02E−03 μM): 96.8%
Relative Cell Count (%) Mean ([14]; 9.49E+00 μM): 76.9%
Relative Cell Count (%) Mean ([14]; 9.51E−01 μM): 81.9%
Relative Cell Count (%) Mean ([14]; 9.52E−02 μM): 89.7%
Relative Cell Count (%) Mean ([14]; 9.53E−03 μM): 98.2%
Relative Cell Count (%) Mean ([14]; 9.55E−04 μM): 98.5%
